Laboratory results published in PubChem BioAssay AID179 (DTP/NCI, 2004).
Active and inactive are the calls of the source.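 The calls were made as follows: active = compounds giving half or more protection of infected cells from virus-caused growth loss, again on retest; inactive = the rest.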

Tested on: CEM cells HIV-1 protection, formazan growth assay
Test: NCI AIDS Antiviral Assay
Conditions: for IC50: measured here: growth of uninfected CEM cells
Outline: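 Five concentrations of each compound were applied to infected and uninfected human CEM cells. Protection from HIV-1 was judged from growth measured with a soluble formazan assay.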

| Structure (SMILES) | EC50 | IC50 | outcome |
| --- | --- | --- | --- |
| CCOC(=O)CCC(NC(=O)OCc1ccccc1)C(=O)NC(CCC(=O)OCC)C(=O)NC(CCC(=O)OCC)C(=O)NC(CCC(=O)OCC)C(=O)NC(CCC(=O)OCC)C(=O)OCC (centres undefined) | > 100 µM | > 100 µM | – |
| CC1(CO)C(O)CCC2(C)C1CCC1CC3CC12CCC3(O)CO (centres undefined) | > 275 µM | 0.398 µM | – |
| O=C1C(Cl)C(c2cccc([N+](=O)[O-])c2)N1n1cnc2ccccc2c1=O (centres undefined) | > 10 µM | > 10 µM | – |
| CCOC(=O)C1=C(C)N(NC(N)=O)C2(N)N(NC(N)=O)C(C)=C(C(=O)OCC)C12C(=O)OCC (centres undefined) | > 513 µM | > 513 µM | – |
| CC1OC(OCC2OC(Oc3c(-c4ccc(O)c(O)c4)oc4cc(O)cc(O)c4c3=O)C(O)C(O)C2O)C(O)C(O)C1O (centres undefined) | > 200 µM | 1.02 µM | inactive |
| Nc1nc(Cl)c(Cl)c(NCC2(O)CCC2)n1 | > 200 µM | 20.9 µM | – |
| CC(=N\N=C(N)N)/C(N=Nc1ccc(S(N)(=O)=O)cc1)=N\N=C(N)N | > 200 µM | 1.58 µM | – |
| O=C(CCCC(=O)N/N=C/c1ccc(O)c(O)c1)N/N=C\c1ccc(O)c(O)c1 | > 200 µM | 29.5 µM | – |
| COc1ccc(-c2cc(-c3cc(C)cc(Cl)c3O)nc3[nH]c(=S)[nH]c(=S)c23)cc1 | > 200 µM | 4.17 µM | – |
| [N-]=[N+]=Nc1cc(=O)[nH]nc1-c1ccccc1 | > 200 µM | > 200 µM | – |
| CC12OC3(C)OC(=O)C(c4ccccc4)(O1)C3(C)O2 (centres undefined) | – | – | inactive |
| CN(C)CC1CCCC/C1=N\OC(=O)c1ccccc1 (centres undefined) | – | – | inactive |
| N#C/C(=C\NC(=S)Nc1ccccc1Cl)C(=O)c1ccc2ccccc2c1 | > 200 µM | 141 µM | – |
| O=C(CCCNC(=O)OCc1ccccc1)OCc1ccc2c(c1)C(=O)c1ccccc1C2=O | > 200 µM | > 200 µM | – |
| c1ccc([As](c2ccccc2)c2cccc[c]2[Bi]([c]2ccccc2)[c]2ccccc2)cc1 | > 10.7 µM | > 10.7 µM | – |
| Cc1ccc(S(=O)(=O)N2CC3OC(C)(C)OC3C2CO)cc1 (centres undefined) | – | – | inactive |
| CC(C)c1nc2c(Cl)c3ncccc3cc2[nH]c1=O | > 100 µM | 39.8 µM | – |
| O=C(O)c1cc2c(cc1CC(Cc1ccc3c(c1)CCCC3)C(=O)O)CCCC2 (centres undefined) | > 200 µM | 51.3 µM | – |
| CC1=NNC(=O)C1 | > 200 µM | 66.1 µM | – |
| O=C1CCCCCC1CC(Sc1ccccc1)Sc1ccccc1 (centres undefined) | > 200 µM | 16.2 µM | – |
| CCCCCCCCCc1cc(-c2ccc(C=O)s2)sc1-c1ccc(C=O)s1 | > 200 µM | 2.75 µM | – |
| c1ccc2[nH]c3[nH]c4[nH]c5ccccc5[nH]c4[nH]c3[nH]c2c1 | > 50.1 µM | > 50.1 µM | – |

| Structure (SMILES) | EC50 | IC50 | outcome |
| --- | --- | --- | --- |
| O=C(NCCCN1CC2CCCC2C1)C(c1ccccc1)c1ccccc1 (centres undefined) | > 200 µM | 39.8 µM | – |
| CN1CCOC(c2ccc(Cl)cc2)O1 (centres undefined) | – | – | inactive |
| N#Cc1c(N)c2c(c(-c3ccccc3)c1-c1ccccc1)C(=O)N(NC(=S)Nc1ccccc1)C2=O | > 58.9 µM | 47.9 µM | – |
| c1ccc2c(c1)[nH]c1scc[n+]12 | – | – | inactive |
| CC(=O)NCC1(c2ccccc2)CCN(CC2COc3ccccc3O2)CC1 (centres undefined) | > 200 µM | > 200 µM | – |
| Cc1c(Cl)c(=O)oc2cc(OCC(O)COC(C)C)ccc12 (centres undefined) | – | – | inactive |
| CCOC(=O)/C=C(/CN1C(=O)c2ccccc2C1=O)c1ccccc1 | – | – | inactive |
| CC(C)CCC[C@H](C)[C@H]1CC[C@H]2[C@@H]3CC=C4CC(OC(=O)OC5CCC6(C)CC7CCC6(OO7)C5(C)C)CC[C@]4(C)[C@H]3CC[C@]12C (some centres undefined) | > 200 µM | > 200 µM | – |
| O=C(/C(=N/Nc1ccccc1)c1ccc([N+](=O)[O-])cc1)c1ccc([N+](=O)[O-])cc1 | – | – | inactive |
| CCCC(O)c1cn(-c2cccc(S(=O)(=O)O)c2)nn1 (centres undefined) | > 832 µM | > 832 µM | – |
| O=C(O)c1ccc(N=Nc2ccc(CCc3ccc(N=Nc4ccc(C(=O)O)cc4O)cc3S(=O)(=O)O)c(S(=O)(=O)O)c2)c(O)c1 | 19.5 µM | 234 µM | – |
| O=S1(=O)OCCCCO1 | > 1620 µM | > 1620 µM | – |
| CN(C)CC1CCC/C1=N\O (centres undefined) | > 1580 µM | 1380 µM | – |
| CC1(C)CC(C2CC(C)(C)CC(C)(C)[C@H]2O)[C@@H](O)C(C)(C)C1 (some centres undefined) | > 12 µM | > 12 µM | – |
| O=C(O)C(C(=O)O)P(=S)(S)c1ccccc1 (centres undefined) | > 4570 µM | > 4570 µM | – |
| O=S1(=O)C[C@H](NCc2ccccc2)[C@H](NCc2ccccc2)C1 | > 200 µM | 107 µM | – |
| Cc1cccc2[nH]c3cc(O)cc(O)c3c(=O)c12 | > 200 µM | 10.5 µM | – |
| Cn1c(=O)c2nc(-c3ccc(Cl)cc3)oc2n(C)c1=O | > 9.33 µM | > 9.33 µM | – |
| CC12CC1C(c1cccc([N+](=O)[O-])c1)(c1cccc([N+](=O)[O-])c1)N=N2 (centres undefined) | > 200 µM | 13.5 µM | – |
| CC1=CC(=O)C(C(O)(C(F)(F)F)C(F)(F)F)C(C)(C)C1 (centres undefined) | > 200 µM | > 200 µM | – |
| O=C1Nc2cc([N+](=O)[O-])ccc2NC1/C(=N\Nc1ccccc1)C(O)c1cccc([N+](=O)[O-])c1 (centres undefined) | > 417 µM | 47.9 µM | – |
